Data taken from PubChem BioAssay AID2823 (Broad Institute, 2010).
pIC50: −log10 of the molar value. Activity calls are given as the source filed them. The rule behind the calls is not given here.

Biological target: RanGTP-importin-beta complex (human Ran / KPNB1)
Experiment: disruptors of RanGTP/KPNB1 binding – biochemical, FRET, CFP/YFP, cell-free homogeneous, confirmation (AID 2823)
Details: CFP-Ran/YFP-importin-beta FRET ratio

Row | Structure (SMILES) | IC50 | pIC50
1 | CCOc1ccc(N2C(=O)C3C4C=CC(CC4)C3C2=O)c([N+](=O)[O-])c1 (stereo not given) | > 50 µM (inactive) | –
2 | CCOc1ccc(C2C(C(=O)OC)=CN(CCOC)C=C2C(=O)OC)cc1 | – | 4.88
3 | CCN(CC)Cc1c(O)ccc2c(C)c(CC(=O)OC)c(=O)oc12 | – | 4.85
4 | Cc1ccc2cc(C#N)c(N3CCCN(C(=O)C4CCCO4)CC3)nc2c1 (stereo not given) | – | 4.69
5 | Cc1ccc(-c2ccc(/C=C(\C#N)C(N)=S)n2C)cc1 | > 50 µM (inactive) | –
6 | CCCc1cc(=O)oc2c(CN(CC)CC)c(O)c(Cl)cc12 | – | 4.36
7 | O=c1cc(CN2CCN(Cc3ccccc3)CC2)c2ccc(O)cc2o1 | – | 4.95
8 | CCOC(=O)N1CCN(c2cc(=O)n(C3CCCCC3)c(=O)[nH]2)CC1 | > 50 µM (inactive) | –
9 | CC(C)c1ccc(CN2CCC(Oc3ccc(C(=O)N4CCCC4)cc3)CC2)cc1 | > 50 µM (inactive) | –
10 | CC(C)OC(=O)c1nnn(-c2nonc2N)c1CN1CCCCCC1 | > 50 µM (inactive) | –
11 | Cc1cccc(C)c1N1CCN(S(=O)(=O)c2ccc(F)cc2)CC1 | > 50 µM (inactive) | –
12 | CC1=C(C(=O)OCC2CCCO2)C(c2ccccc2OC(C)C)C2=C(CC(c3ccco3)CC2=O)N1 (stereo not given) | – | 5.08
13 | Nc1c(C(=O)OC2CCCCC2)c2nc3ccccc3nc2n1CC1CCCO1 (stereo not given) | – | 4.57
14 | CCOc1ccc(NC(=O)CN2C(=O)COc3ccc(Cl)cc32)cc1 | > 50 µM (inactive) | –
15 | CC(NC(=O)/C(C#N)=C/c1ccc(N2CCOCC2)cc1)c1ccccc1 (stereo not given) | – | 4.70
16 | Cc1c(O)ccc2c3c(c(=O)oc12)CCC(C)C3 (stereo not given) | – | 4.92
17 | C/C(N)=C(/C#N)C(=O)COc1ncnc2ccccc12 | > 50 µM (inactive) | –
18 | Cc1sc2nc(COC(=O)Cc3ccccc3)[nH]c(=O)c2c1C | > 50 µM (inactive) | –
19 | COc1ccccc1C#Cc1ccc2c(=O)c3ccccc3n(C)c2c1 | – | 6.16
20 | C=CCn1c(SCC(=O)Nc2sccc2C(N)=O)nc2ccccc2c1=O | > 50 µM (inactive) | –
21 | Cn1c(=O)oc2cc(S(=O)(=O)NCCC(=O)N3CC=C(c4ccccc4)CC3)ccc21 | > 50 µM (inactive) | –
22 | COc1ccc(C(=O)Nc2sc3c(c2C#N)CCN(C(C)=O)C3)cc1 | > 50 µM (inactive) | –
23 | CC1=Nc2ccccc2/C1=C\c1sc(Nc2ccc(C)cc2)nc1O | > 50 µM (inactive) | –
24 | COc1ccc(C(=O)O)cc1S(=O)(=O)N(C)C | > 50 µM (inactive) | –
25 | Cc1cc(C=C(C#N)C#N)ccc1N1CCCC1 | > 50 µM (inactive) | –

Row | Structure (SMILES) | IC50 | pIC50
26 | CC(=O)c1ccc(-c2ccc(Cn3c(C)nc4cc(N)c(C)nc43)cc2)cc1 | > 50 µM (inactive) | –
27 | CC1(C)CC(=O)C=C(Nc2ccccc2F)C1 | > 50 µM (inactive) | –
28 | Cc1ccc(Cl)cc1-n1c(=O)cc(N2CC(C)OC(C)C2)[nH]c1=O (stereo not given) | > 50 µM (inactive) | –
29 | CCOC(=O)c1c(N)n(CCOC(=O)c2cccs2)c2nc3ccccc3nc12 | – | 4.41
30 | COc1ccc(OC)c(S(=O)(=O)n2ccnc2C)c1 | > 50 µM (inactive) | –
31 | COCCN1C=C(C(=O)OC)C(c2cc(Br)c(OC)c(OC)c2)C(C(=O)OC)=C1 | – | 4.67
32 | CCOC(=O)CNC(=O)C1CCCN(c2ncccn2)C1 (stereo not given) | > 50 µM (inactive) | –
33 | CN(Cc1cnc2nc(N)nc(N)c2n1)c1ccc(C(=O)N[C@@H](CCC(=O)O)C(=O)O)cc1 | > 50 µM (inactive) | –
34 | COc1ccc(C(=O)c2cc3ccc(O)cc3oc2=O)cc1 | – | 4.78
35 | CCOC(=O)C1CCN(C(=O)COC(=O)c2ccc3[nH]c4c(c3c2)CCCC4)CC1 | > 50 µM (inactive) | –
36 | c1ccc2sc(NC3=NCN(CCN4CCOCC4)CN3)nc2c1 | > 50 µM (inactive) | –
37 | O=C(O)Cn1cc(/C=C2/SC(=O)N(CC(=O)N3CCCCCC3)C2=O)c2ccccc21 | – | 4.36
38 | COc1ccc2c(CC#N)c[nH]c2c1 | > 50 µM (inactive) | –
39 | COC(=O)C1=C(C)NC2=C(C(=O)CCC2)C1c1cccc(C)n1 (stereo not given) | – | 4.59
40 | CN(C)CCCN(C(=O)c1ccc(Br)s1)c1nc2cc3c(cc2s1)OCCO3 | > 50 µM (inactive) | –
41 | Clc1ccc(-c2ncc3ccccn23)cc1 | > 50 µM (inactive) | –
42 | N#Cc1c(N)n(CCNC(=O)c2ccc(Cl)cc2)c2nc3ccccc3nc12 | – | 5.14
43 | O=c1[nH]c(-[n+]2ccc3ccccc3c2)c(/C=N/N=C(\[O-])c2ccccc2)s1 | > 50 µM (inactive) | –
44 | CC(CC(F)(F)F)N1CCC(n2nccc2NC(=O)CCOc2ccccc2)CC1 (stereo not given) | > 50 µM (inactive) | –
45 | COc1cc(NC(=O)C2CC2)c(OC)cc1NC(=O)c1ccco1 | > 50 µM (inactive) | –
46 | Cc1cc(Cl)c(S(=O)(=O)N2CCCC2)cc1OCC(=O)NC1CCCCC1 | > 50 µM (inactive) | –
47 | COc1ccc(CCNc2oc(-c3ccco3)nc2C#N)cc1 | > 50 µM (inactive) | –
48 | Cc1cc(NC(=O)c2c(F)c(F)c(F)c(F)c2F)no1 | > 50 µM (inactive) | –
49 | COc1ccc(Cn2c(=N)c(C(=O)NC3CCCCC3)cc3c(=O)n4ccccc4nc32)cc1 | – | 4.32
50 | CCOc1ccc(NS(=O)(=O)c2ccc3c(c2)CCN3C(=O)CCC(=O)O)cc1 | > 50 µM (inactive) | –

Row | Structure (SMILES) | IC50 | pIC50
51 | N#Cc1c(N)n(CCOC(=O)c2ccc(Cl)cc2)c2nc3ccccc3nc12 | – | 5.43
52 | Cc1ccc(N2CC(=O)N(NC(=O)c3sc4nc(C)cc(C)c4c3N)CC2=O)cc1 | > 50 µM (inactive) | –
53 | CNC(=S)Nc1ccc(C(N)=O)cc1 | > 50 µM (inactive) | –
54 | O=C(Cn1c2ccccc2c(=O)c2ccccc21)Nc1ccccc1F | – | 5.26
55 | Cc1ccc(NC(=S)NCCN2CCOCC2)cc1 | > 50 µM (inactive) | –
56 | COc1cc(OC)cc(-c2cc3nc(C)cc(N4CCN(C(=O)c5ccco5)CC4)n3n2)c1 | – | 5.31
57 | CSc1sc(C)cc1C1C(C#N)=C(N)N(c2cccnc2)C2=C1C(=O)CCC2 (stereo not given) | – | 4.32
58 | COC(=O)C1=CN(Cc2ccccc2)C=C(C(=O)OC)C1c1ccc(O)c(OC)c1 | > 50 µM (inactive) | –
59 | Cc1ccc(/C=C/C(=O)Nc2cccc3ncccc23)o1 | > 50 µM (inactive) | –
60 | Cc1ccc2cc(C#N)c(N3CCCN(C(=S)NCCCN(C)C)CC3)nc2c1 | – | 4.65
61 | COc1cc([C@@H]2[C@H]3CN(C)CC=C3C(C#N)=C(N)C2(C#N)C#N)cc2c1OCO2 | – | 4.68
62 | CC(=O)c1cc(C#N)c(N2CC(C)OC(C)C2)nc1C (stereo not given) | > 50 µM (inactive) | –
63 | COc1cccc(-c2cc(C(=O)NC3CC3)c3ccccc3n2)c1 | > 50 µM (inactive) | –
64 | Cc1cccc(NS(=O)(=O)c2ccc(C(=O)N3CCCCCC3)cc2)c1C | > 50 µM (inactive) | –
65 | NC(N)=N/N=C/c1ccc(N(c2ccccc2)c2ccccc2)cc1 | – | 4.78
66 | CCN(/N=C/C=C/c1ccccc1)c1cc(=O)n(C)c(=O)[nH]1 | > 50 µM (inactive) | –
67 | OCCNc1nc(-c2ccccc2)nc2ccccc12 | > 50 µM (inactive) | –
68 | COc1cc2c(cc1NC(=S)Nc1cccc3ccccc13)oc1ccccc12 | > 50 µM (inactive) | –
69 | Cc1cc2c(c(=O)n1C1CC1)C(c1cccc(Cl)c1)C(C#N)=C(N)O2 (stereo not given) | > 50 µM (inactive) | –
70 | CCOc1ccc(C(=O)c2cc3ccc(O)cc3oc2=O)cc1 | – | 5.03
71 | CC1(C)CC(=O)NC=C(c2ccccc2)C1 | > 50 µM (inactive) | –
72 | CCCCc1cc(=O)oc2c(C)c(OCC(=O)NCc3ccccn3)ccc12 | > 50 µM (inactive) | –
73 | COCCNC(=O)c1c(NC(=O)c2ccco2)n(Cc2ccccc2)c2nc3ccccc3nc12 | – | 5.72
74 | Cc1cc(C)c(C2=CC(c3ccccc3)n3ncnc3N2)cc1C (stereo not given) | – | 4.41
75 | CCN(CC)c1ccc(/C=N/NC(=O)c2c(Cl)cnn2C)c(O)c1 | – | 5.21
